From ChEMBL document CHEMBL1137578, “Small molecules block the polymerization of Z alpha1-antitrypsin and increase the clearance of intracellular aggregates” (2007) come the findings set out here.

For experiment [1], the species on record is Homo sapiens. Put plainly: Inhibition of polymerization of alpha-1-antitrypsin Z mutant at 10 uM.
The species named for experiment [2] is Homo sapiens. Put plainly: Inhibition of polymerization of alpha-1-antitrypsin Z mutant at 5 uM.
The species entered for experiment [3] is Homo sapiens. Put plainly: Inhibition of polymerization of alpha-1-antitrypsin Z mutant.
The next experiment is filed under the species Mus musculus. Put plainly: (§1) Reduction in intracellular accumulation of alpha-1 antitrypsin Z mutant in mouse Hepa1a cells at 100 uM after 16 hrs. Type of experiment: functional.
For experiment [4], the species on record is Homo sapiens. Put plainly: Inhibition of polymerization of alpha-1-antitrypsin Z mutant at 50 uM.
For experiment [5], the target named is T1, Alpha-1-antichymotrypsin (Homo sapiens) (UniProt P01011).
T1 sequence (whole entry): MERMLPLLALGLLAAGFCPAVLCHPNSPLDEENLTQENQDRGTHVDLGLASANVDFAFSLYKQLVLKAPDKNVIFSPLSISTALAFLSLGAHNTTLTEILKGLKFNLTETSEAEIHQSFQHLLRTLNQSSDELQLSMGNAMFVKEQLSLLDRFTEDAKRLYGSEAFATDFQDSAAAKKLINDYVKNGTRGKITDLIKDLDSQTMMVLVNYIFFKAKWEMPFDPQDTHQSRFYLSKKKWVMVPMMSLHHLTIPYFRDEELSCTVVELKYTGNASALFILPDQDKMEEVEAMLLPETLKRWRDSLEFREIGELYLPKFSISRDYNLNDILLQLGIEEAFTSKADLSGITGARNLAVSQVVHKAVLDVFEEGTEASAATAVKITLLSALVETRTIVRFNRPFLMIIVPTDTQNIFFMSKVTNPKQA
The experiment can be described thus: Inhibition of polymerization of alpha-1 antichymotrypsin at 200 uM.

Experiment [6] in a line: as §1. Type of experiment: functional. Further details: scale not given: the % may be the effect or the level left.
For experiment [7], the species on record is Homo sapiens. The experiment can be described thus: Inhibition of polymerization of alpha-1-antitrypsin Z mutant at 20 uM.

Molecules are shown by their SMILES. Calls of active or inactive are those of the source. The calls are words filed in the database; no cut-off is given here.

For `Oc1ccc(-c2n[nH]cc2-c2cnn(-c3ccccc3)c2)c(O)c1O`, the outcome in the experiment filed under Homo sapiens [1] was Active.
As to `Cc1ccc(S(=O)(=O)Nc2cc(C)c(O)c(Sc3nnc[nH]3)c2)cc1`, the outcome in the experiment listed under Homo sapiens [2] and in the experiment filed under Homo sapiens [1] was Active.
In the case of `Cc1cc(NS(=O)(=O)c2ccccc2)cc(Br)c1O`, the outcome in the experiment listed under Homo sapiens [2] and in the experiment listed under Homo sapiens [1] was Active.
With `O=C1c2ccc(O)cc2OC(c2ccc(O)c(O)c2O)C1O` (configuration not stated), the result in the experiment listed under Homo sapiens [3] was Active.
Same read-out and setting: the value for `NS(=O)(=O)c1ccc(Nc2nc(-c3ccc(O)cc3O)cs2)cc1` was “Active”.
Regarding `COc1c(C)cc(NS(=O)(=O)c2ccc(SC)cc2)cc1C`, the result in the experiment listed under Mus musculus was inactive.
Regarding `Cc1cc(NS(=O)(=O)c2ccccc2)cc(C)c1O`, the outcome in the experiment listed under Homo sapiens [4] was Active.
As for `Oc1ccc(-c2n[nH]cc2-c2ccn(-c3ccccc3)n2)c(O)c1O`, the result in the experiment filed under Homo sapiens [1] was Active.
Regarding `COc1ccccc1Nc1ccc2c(O)cc(S(=O)(=O)O)cc2c1`, the result in the experiment listed under Homo sapiens [3] was Active.
Consider `Cc1cc(NS(=O)(=O)c2cccc([N+](=O)[O-])c2)cc(C)c1O`, for which the outcome in the experiment listed under Homo sapiens [1] was Active.
On the same count and under the same terms, the value for `Cc1cc(NS(=O)(=O)c2ccc([N+](=O)[O-])cc2)cc(C)c1O` was “Active”.
Still for that read-out and setting: the entry for `Cc1cc(NS(=O)(=O)c2ccccc2)cc(Cl)c1O` is “Active”.
For `Cc1ccc(S(=O)(=O)Nc2cc(C)c(O)c(Sc3nnc(C)[nH]3)c2)cc1`, the result in the experiment listed under Mus musculus was inactive. Further, the result in the experiment filed under Homo sapiens [2] and in the experiment listed under Homo sapiens [1] was Active.
For `CSc1ccc(C(Nc2ccccn2)c2oc(CO)cc(=O)c2O)cc1` (configuration not stated), the result in the experiment filed under Homo sapiens [3] was Active.
Regarding `Cc1cc(S(=O)(=O)Nc2cc(C)c(O)c(C)c2)c(C)s1`, in experiment [5], the result was inactive. The result in the experiment listed under Homo sapiens [4] and in the experiment listed under Homo sapiens [7] was Active. The Activity in experiment [6] stood at 70%.
